Format in all cases: in vivo
Experiment [1] is described as follows: Antipyretic activity by oral administration in rats (change in body temperature). The source says:
Antipyretic activity of compound (a) and (b) with respect to
Naproxen and 5-bromo-Naproxen (c)
by oral administration in rats

The nature of experiment [2]: Anti-inflammatory activity by oral administration. To be noted: for ED50: oral, dose column in μM/kg/os, after 3 h, read-out: ED50 (L.C. 95%). From the text:
A further unexpected property of the compounds of formula (C) is that they are in themselves pharmacologically active compounds. […] The following tables give the data relative to the anti-inflammatory and antipyretic activity of the compounds (D) in which: |Anti-inflammatory activity of the derivatives (a) and |(b) with respect to Naproxen and 5-bromo-Naproxen (c) |by oral administration

A short description of experiment [3]: Antipyretic activity by peritoneal administration in rats (change in body temperature). Particulars: peritoneal administration (title).

Regarding `COC(=O)C(O)C(OC(=O)C(C)c1ccc2c(Br)c(OC)ccc2c1)C(=O)OC` (stereo not shown) [(b)], the “Change in body temperature after 1 hour” value in experiment [1] (10 μM/kg/oral) was -0.17 °C; in experiment [1] (30 μM/kg/oral) it was -0.49 °C; in experiment [1] (100 μM/kg/oral), -0.46 °C; in experiment [3] (10 μM/kg) it was -0.52 °C; in experiment [3] (30 μM/kg), -0.87 °C. Besides, the “Change in body temperature after 2 hours” value in experiment [1] (10 μM/kg/oral) was -0.19 °C; in experiment [1] (30 μM/kg/oral), -0.68 °C; in experiment [1] (100 μM/kg/oral), -0.68 °C. The “Inhibition (after 3 h)” value in experiment [2] (10 μM/kg/os) was found to be 3%; in experiment [2] (30 μM/kg/os), 14%; in experiment [2] (100 μM/kg/os), 20%. For the same compound, the ED50 (in general, the dose that gives a 50% effect, or the effect in half of the subjects) in experiment [2] was 160 µmol/kg. Also, the “Change in body temperature after 30 min” value is -0.24 °C in experiment [3] (10 μM/kg) and -0.77 °C in experiment [3] (30 μM/kg). The “Change in body temperature after 4 hours” value is -0.26 °C in experiment [3] (10 μM/kg) and -0.44 °C in experiment [3] (30 μM/kg).
On to `COc1ccc2cc([C@H](C)C(=O)O)ccc2c1` [Naproxen, S(+)2-(6-methoxy-2-naphtyl)-propionic acid, reference compound], for which the “Change in body temperature after 1 hour” value in experiment [1] (3 μM/kg/oral) is -0.38 °C; in experiment [1] (10 μM/kg/oral), -1.22 °C; in experiment [1] (30 μM/kg/oral) it was -1.86 °C; in experiment [3] (10 μM/kg), -1.10 °C. In addition, the entries for the “Change in body temperature after 2 hours” value in experiment [1] (3 μM/kg/oral), in experiment [1] (10 μM/kg/oral) and in experiment [1] (30 μM/kg/oral) were -0.52 °C, -1.48 °C and -1.89 °C, respectively. The “Inhibition (after 3 h)” value in experiment [2] (10 μM/kg/os) came out at 38%; in experiment [2] (30 μM/kg/os), 45%; in experiment [2] (100 μM/kg/os) it was 66%. For the same compound, in experiment [2], the ED50 was 31 µmol/kg. Moreover, in experiment [3] (10 μM/kg), the “Change in body temperature after 30 min” value is -1.00 °C. The “Change in body temperature after 4 hours” value in experiment [3] (10 μM/kg) was -0.86 °C.
For `COC(=O)C(O)C(OC(=O)C(C)c1ccc2cc(OC)ccc2c1)C(=O)OC` (stereo not shown) [(a)], the “Change in body temperature after 1 hour” value in experiment [1] (10 μM/kg/oral) is -0.02 °C; in experiment [1] (30 μM/kg/oral), “+0.07 °C”; in experiment [1] (100 μM/kg/oral), “+0.01 °C”; in experiment [1] (300 μM/kg/oral) it was “+0.03 °C”; in experiment [3] (10 μM/kg) it was -0.52 °C; in experiment [3] (30 μM/kg), -1.02 °C. Moreover, the “Change in body temperature after 2 hours” value in experiment [1] (10 μM/kg/oral) is “+0.02 °C”; in experiment [1] (30 μM/kg/oral), -0.61 °C; in experiment [1] (100 μM/kg/oral) it was -0.76 °C; in experiment [1] (300 μM/kg/oral), -0.81 °C. The figures for the “Inhibition (after 3 h)” value in experiment [2] (10 μM/kg/os), in experiment [2] (30 μM/kg/os) and in experiment [2] (100 μM/kg/os) were 0%, 0% and 16%, respectively. Besides, the 50% effective dose (ED50) in experiment [2] worked out at 175 µmol/kg. Besides, the “Change in body temperature after 30 min” value in experiment [3] (10 μM/kg) is -0.26 °C; in experiment [3] (30 μM/kg) it was -0.61 °C. The “Change in body temperature after 4 hours” value in experiment [3] (10 μM/kg) is -0.19 °C; in experiment [3] (30 μM/kg) it was -0.56 °C.
As for `COc1ccc2cc([C@H](C)C(=O)O)ccc2c1Br` [(c), S(+)-2-(5-bromo-6-methoxy-2-naphthyl)-propionic acid, reference compound], the “Change in body temperature after 1 hour” value is -0.17 °C in experiment [1] (30 μM/kg/oral); -1.33 °C in experiment [1] (100 μM/kg/oral); -1.42 °C in experiment [1] (300 μM/kg/oral); -1.01 °C in experiment [3] (30 μM/kg); -1.45 °C in experiment [3] (100 μM/kg). Also, the “Change in body temperature after 2 hours” value in experiment [1] (30 μM/kg/oral) is -0.66 °C; in experiment [1] (100 μM/kg/oral), -1.67 °C; in experiment [1] (300 μM/kg/oral), -1.84 °C. Moreover, the “Inhibition (after 3 h)” value is recorded as 6% in experiment [2] (10 μM/kg/os), 34% in experiment [2] (30 μM/kg/os), 34% in experiment [2] (100 μM/kg/os) and 56% in experiment [2] (300 μM/kg/os). Further, the ED50 in experiment [2] worked out at 196 µmol/kg. Moreover, the “Change in body temperature after 30 min” value is -0.55 °C in experiment [3] (30 μM/kg) and -0.78 °C in experiment [3] (100 μM/kg). Also, the entries for the “Change in body temperature after 4 hours” value in experiment [3] (30 μM/kg) and in experiment [3] (100 μM/kg) were “+0.06 °C” and -0.99 °C, respectively.

For the origin of these results see patent US4697036A, “Process for the preparation of optically active alpha-arylalkanoic acids and novel intermediates thereof” (Zambon S.p.A., priority 1984, dated 1987).
